We go through three compounds from PMC4552634, “A New Set of Chemical Starting Points with Plasmodium falciparum Transmission-Blocking Potential for Antimalarial Drug Discovery” (PLoS ONE, 2015).

SMILES strings stand for the structures. Like-named read-outs stand apart in the source and are kept apart here.

Data set [1] concerns P. falciparum asexual stages. The note with it: TCAMS data, cited from earlier work.
Data set [2] relates to P. falciparum stage V gametocytes. Nature of the data set: microbe, parasite or virus in culture. Set-up: BacTiter-Glo ATP luminescence viability of purified stage V gametocytes in 384-well plates, per cent inhibition versus DMSO. The note with it: Plasmodium falciparum, 48 h, read-out: % Inhibition.
Data set [3] has the same test system. Briefly: Gametocytocidal ATP bioluminescence assay (single point 5 μM and 1 μM, dose-response). The format is cell-based, Plasmodium falciparum. The following applies: for Ratio IC50 HepG2/IC50 P. falciparum: IC50 HepG2 divided by IC50 P. falciparum gametocytes; for IC50: Plasmodium falciparum.
Description: Purified stage IV-V gametocytes were obtained as previously described [10]. Single point ATP bioluminescence assay and dose–response of positive hits was determined in accordance with the previously published protocol [10].
Data set [4] relates to luciferase reaction (BacTiter-Glo). Briefly: Interference assay (inhibition of the BacTiter-Glo luciferase reaction). In kind it is biochemical. Set-up: concentration or dose not given beside the values. The following applies: ATP interference assay. The procedure:
To discard possible false-positive results, we performed an interference assay in parallel. […] […]. The ATP solution was made by dissolving ATP powder (ATP standard from the ATPlite 1 step assay kit, reference 6016731, Perkin Elmer) in culture medium. The positive control used was the Luciferase Inhibitor I Calbiochem (Merck, 119113) at 100 μM.

The test system of another data set is HepG2 cells. Briefly: Cytotoxicity in HepG2 cells (intracellular ATP, ATPlite, 48 h). The format is cell-based, human. The following applies: IC50 HepG2 divided by IC50 P. falciparum gametocytes. For orientation: Cellular ATP, detected with luciferase, serves as a proxy for viable cell number.
Assay in data set [5]: as above
Description: Cells were grown and maintained in EMEM (Sigma-Aldrich) supplemented with 2mM L-glutamine (Sigma-Aldrich) and 10% fetal calf serum (Perbio). […] Passages were routinely made upon reaching 80–90% confluence. For cytotoxicity experiments, cells were seeded onto 96-well clear bottom black plates coated with type I collagen (Biocoat, Becton Dickinson) at a cell density of 20,000 cells/well.
To determine cytotoxic effects, represented by the Tox50 value (the concentration of drug that reduces cell viability by 50%), cells were exposed to serial dilutions of compounds for 48 h at 37°C. The assay medium was as previously described, but supplemented with 5% fetal calf serum instead of 10%. […] In the presence of ATP, luminescence is emitted as the reaction described earlier for the BacTiter-Glo kit. Percentages of inhibition were calculated relative to vehicle control wells.
The note with it: human, HepG2 cells. In kind it is cell-based, human.

[6] abbreviates: P. falciparum asexual stages, read-out: IC50 (µM) Pf asexual stages.
[7] abbreviates: asexual stages, read-out: IC50 asexual.
The mark [8] stands for this setting: P. falciparum gametocytes, average, read-out: IC50 Pf Gametocytes average, IC50 (µM) average.
Where [9] appears, read: HepG2, 48 h exposure, intracellular ATP, read-out: IC50 (μM) Cytotoxicity HepG2.
Where [10] appears, read: IC50 per ratio column head, unit inferred, read-out: Cytotoxicity in HepG2.

The term inhibition denotes the relative decrease from the control value, in per cent. As to `O=c1c(Br)ccccc1Br` [TCMDC-142246], the IC50 was 0.79 µM in data set [1] (setting [6]); 0.795 µM in data set [1] (setting [7]); 0.21 µM in data set [3] (setting [8]); 0.207 µM in data set [3] (sexual stages (gametocytes), dose-response, read-out: IC50 sexual). Besides, the inhibition at 5 µM in data set [2] came out at 103%. Besides, the “Ratio IC50 HepG2/IC50 P. falciparum” value (in data set [3]; in the data set with HepG2 cells) was 61 throughout. Also, the “% Control luminiscence” value in data set [4] came out at 100%. The IC50 at 48 h in data set [5] (setting [9]) amounted to 13 µM; in data set [5] (setting [10]), 12.6 µM.
Take `CCCCN1CCN(CCCCNc2c3ccccc3nc3ccccc23)CC1` [TCMDC-137569]: the IC50 in data set [1] (setting [6]) was 0.17 µM; in data set [1] (setting [7]), 0.167 µM; in data set [3] (setting [8]) it was 1.19 µM. The “Ratio IC50 HepG2/IC50 P. falciparum” value (in data set [3]; in the data set with HepG2 cells) was 11 throughout. For the same compound, the “% Control luminiscence” value in data set [4] stood at 100%. Moreover, the IC50 at 48 h in data set [5] (setting [9]) is 13 µM; in data set [5] (setting [10]) it was 12.7 µM.
Regarding `CCN(CC)C(=NC(=N)Nc1ccc(Cl)cc1)NCCCCCCCCNC(=NC(=N)Nc1ccc(Cl)cc1)N(CC)CC` [TCMDC-131812], the figures for the IC50 in data set [1] (setting [7]) and in data set [3] (setting [8]) were 0.403 µM and 1.03 µM, respectively. Besides, the “Ratio IC50 HepG2/IC50 P. falciparum” value (in data set [3]; in the data set on HepG2 cells) was over 24 throughout. Moreover, the “% Control luminiscence” value in data set [4] is on record as 100%. For the same compound, the IC50 at 48 h in data set [5] (setting [10]) is over 25 µM.
